# Assay results as given in patent US4313956A, “Novel sypathomimetic amine prodrugs” (INTERx Research Corp., priority 1979, dated 1982).
# Where “and” joins values, the source holds several entries; their conditions need not be identical. Identical values can stand only once.
# How the values were obtained:
# [1] = system: burn response of the right ear of female Sprague-Dawley rats; assay: Ear Burn Test (anti-inflammatory activity, ear burn model); assay type: in vivo; settings: for mean (-x) of Δ %, % increase in thickness of the treated ear: group mean; for R ear (thickness of burned, treated ear) / Δ %, % increase in thickness of the treated ear: individual rats; for % inhibition of control response / % inhibition of control response (negative = inflammatory): 50 μl/burned ear, vehicle 90% acetone, 10% IPM, 16-18 hours; for % inhibition of control response (negative = inflammatory): 3 × 10^-2 M
# Procedure: The anti-inflammatory activity of dipivalyloxymethylepinephrine (DDME), a novel prodrug according to this invention, was determined in an ear burn model vis-a-vis the known epinephrine prodrug, dipivalylepinephrine (DPE). Three different ear burn experiments were carried out, each experiment developing a comparison at two different drug dosages.
# A controlled thermal challenge was administered to the right ear of female Sprague-Dawley rats, 40-60 g. […] Pressure applied during the 21 second burn administration was ca. 640 g/cm^2. Two groups, with and without application of vehicle (90% acetone, 10% isopropyl-myristate) served as controls. Vehicle with or without drug was applied to the right ear immediately after burning in the amount of […]. Rats were killed by cervical disclocation 16-18 hours after treatment and the thickness of each ear was determined with a micrometer (in inches ×10^3). Burn response values were normalized by expression of the % increase in thickness of the treated ear, i.e., [formula] The vehicle-treated control group was considered to be the maximum burn response within any given experiment. Inhibition or reversal of the burn response due to drug treatment is expressed as a percentage of the control response.
# [2] = system: psoriatic response; settings: concentrations comparable to 3×10^-2 M; cited from earlier work
# [3] = 0.00001 M, n = 8, control/vehicle 44.6%
# [4] = 0.0001 M, n = 8, control/vehicle 44.6%
# [5] = .00003 M, control/vehicle 40.2 ± 12.6
# [6] = .0003 M, control/vehicle 40.2 ± 12.6
# [7] = .003 M, control/vehicle 32.5 ± 8.9
# [8] = .03 M, control/vehicle 32.5 ± 8.9
SMILES,"mean (-x) of Δ %, % increase in thickness of the treated ear [1, 3]","R ear (thickness of burned, treated ear) ([1]; 0.00001 M)","Δ %, % increase in thickness of the treated ear ([1]; 0.00001 M)","mean (-x) of Δ %, % increase in thickness of the treated ear [1, 4]","R ear (thickness of burned, treated ear) ([1]; 0.0001 M)","Δ %, % increase in thickness of the treated ear ([1]; 0.0001 M)",% inhibition of control response ([1]; 1 × 10^-4 M),% inhibition of control response ([1]; 1 × 10^-5 M),% inhibition of control response (negative = inflammatory) [1],% inhibition of control response ([1]; 3 × 10^-3 M),% inhibition of control response ([1]; 3 × 10^-4 M),% inhibition of control response ([1]; 3 × 10^-5 M),"mean (-x) of Δ %, % increase in thickness of the treated ear [1, 5]","R ear (thickness of burned, treated ear) ([1]; .00003 M)","Δ %, % increase in thickness of the treated ear ([1]; .00003 M)","mean (-x) of Δ %, % increase in thickness of the treated ear [1, 6]","R ear (thickness of burned, treated ear) ([1]; .0003 M)","Δ %, % increase in thickness of the treated ear ([1]; .0003 M)","mean (-x) of Δ %, % increase in thickness of the treated ear [1, 7]","R ear (thickness of burned, treated ear) ([1]; .003 M)",other results
"CNCC(O)c1ccc(OCOC(=O)C(C)(C)C)c(OCOC(=O)C(C)(C)C)c1 (stereo not drawn) [DPME, dipivalyloxymethylepinephrine]",30.5%,16.3 inches ×10^3 and 16.5 inches ×10^3 and 13.8 inches ×10^3 and 14.1 inches ×10^3 and 17.0 inches ×10^3 and 14.7 inches ×10^3 and 17.8 inches ×10^3 and 16.8 inches ×10^3,30.4% and 35.2% and 16.9% and 22.6% and 41.7% and 20.5% and 40.2% and 36.6%,23.0%,14.0 inches ×10^3 and 14.7 inches ×10^3 and 13.6 inches ×10^3 and 14.5 inches ×10^3 and 15.4 inches ×10^3 and 14.9 inches ×10^3 and 15.3 inches ×10^3,18.6% and 23.5% and 12.4% and 21.8% and 31.6% and 22.5% and 26.3% and 27.5%,48.4%,31.6%,-32.6%,8%,41.3%,30.6%,27.9 ± 6.2%,15.3 inches ×10^3 and 17.8 inches ×10^3 and 16.6 inches ×10^3 and 16.3 inches ×10^3 and 15.5 inches ×10^3 and 15.4 inches ×10^3 and 16.9 inches ×10^3,17.7% and 38.0% and 31.7% and 25.4% and 26.0% and 24.2% and 32.8% and 27.0%,23.6 ± 7.9%,17.7 inches ×10^3 and 16.4 inches ×10^3 and 18.0 inches ×10^3 and 17.5 inches ×10^3 and 15.2 inches ×10^3 and 15.5 inches ×10^3 and 15.0 inches ×10^3 and 14.8 inches ×10^3,22.1% and 17.1% and 38.5% and 31.6% and 22.6% and 24.0% and 17.2% and 15.6%,29.9 ± 12.2%,19.9 inches ×10^3 and 15.1 inches ×10^3 and 18.1 inches ×10^3 and 17.0 inches ×10^3 and 17.1 inches ×10^3 and 15.2 inches ×10^3 and 14.0 inches ×10^3 and 16.9 inches ×10^3,"Δ %, % increase in thickness of the treated ear ([1]; .003 M): 45.3% and 21.8% and 42.5% and 26.9% and 41.3% and 17.8% and 12.9% and 31.0%; mean (-x) of Δ %, % increase in thickness of the treated ear [1, 8]: 43.1 ± 12.4%; R ear (thickness of burned, treated ear) ([1]; .03 M): 18.4 inches ×10^3 and 16.9 inches ×10^3 and 20.7 inches ×10^3 and 18.2 inches ×10^3 and 19.3 inches ×10^3 and 20.9 inches ×10^3 and 19.0 inches ×10^3; Δ %, % increase in thickness of the treated ear ([1]; .03 M): 36.3% and 30.0% and 47.9% and 43.0% and 64.6% and 49.6%; anti-inflammatory effect compared with DPE ([1]; low concentration levels): consistently elicits a greater anti-inflammatory effect than DPE; more effective as an anti-inflammatory agent from a dosage standpoint ([1]; versus DPE, dose response profiles at low concentrations): 10-30 fold"
"CNCC(O)c1ccc(OC(=O)C(C)(C)C)c(OC(=O)C(C)(C)C)c1 (stereo not drawn) [DPE, dipivalylepinephrine]",33.3%,17.8 inches ×10^3 and 15.7 inches ×10^3 and 16.2 inches ×10^3 and 18.1 inches ×10^3 and 16.1 inches ×10^3 and 14.5 inches ×10^3 and 18.3 inches ×10^3,41.3% and 26.6% and 24.6% and 29.8% and 46.0% and 26.8% and 25.0% and 46.4%,34.4%,15.9 inches ×10^3 and 17.3 inches ×10^3 and 17.4 inches ×10^3 and 18.3 inches ×10^3 and 16.6 inches ×10^3 and 15.8 inches ×10^3 and 16.4 inches ×10^3 and 17.2 inches ×10^3,31.4% and 35.2% and 35.9% and 48.8% and 32.8% and 26.4% and 27.1% and 37.6%,22.9%,25.3%,-21.5%,8%,31.3%,19.7%,32.3 ± 5.2%,16.4 inches ×10^3 and 18.2 inches ×10^3 and 17.5 inches ×10^3 and 18.1 inches ×10^3 and 16.8 inches ×10^3 and 18.5 inches ×10^3 and 14.5 inches ×10^3 and 16.0 inches ×10^3,29.1% and 32.8% and 31.6% and 40.3% and 36.6% and 37.0% and 22.9% and 30.1%,27.6 ± 6.9%,15.8 inches ×10^3 and 16.4 inches ×10^3 and 18.0 inches ×10^3 and 18.3 inches ×10^3 and 17.7 inches ×10^3 and 16.6 inches ×10^3 and 15.2 inches ×10^3 and 16.2 inches ×10^3,27.4% and 26.2% and 27.7% and 35.6% and 34.1% and 12.6% and 29.6%,29.9 ± 10.8%,18.6 inches ×10^3 and 19.6 inches ×10^3 and 19.8 inches ×10^3 and 16.7 inches ×10^3 and 16.5 inches ×10^3 and 17.1 inches ×10^3 and 13.4 inches ×10^3 and 17.2 inches ×10^3,"psoriatic response in clinical observations [2]: a psoriatic response was often observed; Δ %, % increase in thickness of the treated ear ([1]; .003 M): 39.8% and 41.0% and 43.5% and 21.9% and 23.1% and 29.5% and 12.6% and 27.4%; mean (-x) of Δ %, % increase in thickness of the treated ear [1, 8]: 39.5 ± 11.4%; R ear (thickness of burned, treated ear) ([1]; .03 M): 17.5 inches ×10^3 and 21.3 inches ×10^3 and 18.1 inches ×10^3 and 18.5 inches ×10^3 and 20.0 inches ×10^3 and 17.4 inches ×10^3 and 15.7 inches ×10^3 and 18.3 inches ×10^3; Δ %, % increase in thickness of the treated ear ([1]; .03 M): 32.6% and 56.6% and 43.7% and 37.0% and 52.7% and 28.9% and 23.6% and 40.8%"
